In patent US12084430B2, “Tricyclic urea compounds as JAK2 V617F inhibitors” (Incyte Corporation, priority 2022, dated 2024):
Like-named read-outs stand apart in the source and are kept apart here.

How the values were obtained:
TRKA [1] = molecular target: TRKA (Homo sapiens, UniProt P04629); experiment: TRKA enzymatic assay; assay type: biochemical; conditions: 1 mM ATP
Protocol: (§1) Example I. TRKA Enzymatic Assay
(§2) The kinase assays were carried out at 24° C. temperature in assay buffer (HEPES 50 mM, pH 7.0, NaN3 0.02%, BSA 0.01%, Orthovanadate 0.1 mM, DTT 1 mM, MgCl2 10 mM) in a final volume of 10 μL. Testing compounds were prepared by serial dilution in DMSO and transferred to the plate wells by ECHO liquid handler (Labcyte) with 0.5% DMSO in the final assay. […]. Reactions were initiated by the addition of 5 μL ATP in assay buffer. The final 10 μL kinase reaction consists of 0.58 nM TRKA, 1 mM ATP, 500 nM TK Substrate-biotin and SEB reagent 62.5 nM in assay buffer. […] After 60 minutes incubation at room temperature, the product activity was determined by measuring the fluorescence at 620 nm and 665 nm on Pherastar microplate reader (BMG Labtech). A ratio is calculated (665/620 nm) for each well. Wells with DMSO only were served as the positive controls and wells containing no ATP were used as negative controls. IC50 determination was performed by fitting the curve of percent control activity versus the log of the compound concentration using the Gene data.

TRKA [2] = experiment: TRKA enzymatic assay; assay type: biochemical
Protocol: as §1, §2

KIT [3] = experiment: KIT enzymatic assay; assay type: biochemical
Protocol: (§3) Example D. KIT Enzymatic Assay
(§4) The kinase assays were carried out at room temperature in assay buffer (HEPES 50 mM, pH 7.0, NaN3 0.02%, BSA 0.01%, Orthovanadate 0.1 mM, DTT 1 mM, MgCl2 10 mM) in a final volume of 10 μL. Testing compounds were prepared by serial dilution in DMSO and transferred to the plate wells by ECHO liquid handler (Labcyte) with 0.5% DMSO in the final assay. […]. Reactions were initiated by the addition of 5 μL ATP in assay buffer. The final 10 μL kinase reaction consists of 0.12 nM KIT, 1 mM ATP, 500 nM TK Substrate-biotin and SEB reagent 62.5 nM in assay buffer. […] The plates were then sealed and centrifuged at 1800 rpm for 2 minutes. After 60 minutes incubation at room temperature, the product activity was determined by measuring the fluorescence at 620 nm and 665 nm on Pherastar microplate reader (BMG Labtech). A ratio is calculated (665/620 nm) for each well. Wells with DMSO only were served as the positive controls and wells containing no ATP were used as negative controls. IC50 determination was performed by fitting the curve of percent control activity versus the log of the compound concentration using the GraphPad Prism 7.0 software.

KIT [4] = molecular target: KIT (Homo sapiens, UniProt P10721); experiment: KIT enzymatic assay; assay type: biochemical; conditions: 1 mM ATP
Chain of KIT (Homo sapiens, UniProt P10721) (P10721 26-976, species assumed): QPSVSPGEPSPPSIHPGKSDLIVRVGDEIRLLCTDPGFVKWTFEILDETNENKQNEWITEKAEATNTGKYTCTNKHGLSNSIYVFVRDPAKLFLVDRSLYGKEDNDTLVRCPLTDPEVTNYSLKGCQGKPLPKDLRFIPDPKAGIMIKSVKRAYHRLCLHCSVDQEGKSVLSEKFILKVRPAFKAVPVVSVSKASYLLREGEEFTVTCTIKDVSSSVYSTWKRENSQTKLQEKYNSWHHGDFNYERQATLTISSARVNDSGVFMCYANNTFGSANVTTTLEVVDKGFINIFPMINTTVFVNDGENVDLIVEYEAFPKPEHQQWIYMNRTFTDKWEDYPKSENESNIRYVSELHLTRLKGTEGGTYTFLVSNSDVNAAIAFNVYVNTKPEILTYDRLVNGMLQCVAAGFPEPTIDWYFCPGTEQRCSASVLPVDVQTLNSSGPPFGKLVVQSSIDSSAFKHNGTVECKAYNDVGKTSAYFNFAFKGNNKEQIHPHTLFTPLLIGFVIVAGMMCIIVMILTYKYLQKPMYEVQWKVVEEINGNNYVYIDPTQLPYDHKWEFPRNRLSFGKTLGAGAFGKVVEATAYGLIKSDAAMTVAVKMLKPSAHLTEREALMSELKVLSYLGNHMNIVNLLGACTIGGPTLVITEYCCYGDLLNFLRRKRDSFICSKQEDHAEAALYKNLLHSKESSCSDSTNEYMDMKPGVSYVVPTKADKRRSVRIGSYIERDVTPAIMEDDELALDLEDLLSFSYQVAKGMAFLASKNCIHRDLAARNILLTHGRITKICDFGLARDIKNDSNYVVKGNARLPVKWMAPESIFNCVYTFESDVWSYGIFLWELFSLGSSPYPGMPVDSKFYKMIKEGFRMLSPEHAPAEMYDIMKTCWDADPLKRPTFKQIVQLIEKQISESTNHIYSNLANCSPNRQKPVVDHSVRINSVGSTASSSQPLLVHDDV
Protocol: as §3, §4

FLT3 = FLT3 enzymatic assay; assay type: biochemical
Protocol: Example C. FLT3 Enzymatic Assay
as §4, with “0.011” for “0.12”, “FLT3,” for “KIT,”

[5] = molecular target: T1, pseudo-kinase domain (JH2) of human V617F mutant JAK2 (Homo sapiens, UniProt O60674, F794H/V617F/W659A/W777A); experiment: JAK2 LanthaScreen JH2-V617F binding assay; conditions: read-out: JH2 V617F Bind IC50
T1 construct: pseudo-kinase domain (JH2, amino-acids 536-812 with 3 surface mutations W659A, W777A, F794H); His (C); purchased BPS Bioscience 79498; host or cells: baculovirus expression system
T1 sequence (O60674 536-812 V617F/W659A/W777A/F794H): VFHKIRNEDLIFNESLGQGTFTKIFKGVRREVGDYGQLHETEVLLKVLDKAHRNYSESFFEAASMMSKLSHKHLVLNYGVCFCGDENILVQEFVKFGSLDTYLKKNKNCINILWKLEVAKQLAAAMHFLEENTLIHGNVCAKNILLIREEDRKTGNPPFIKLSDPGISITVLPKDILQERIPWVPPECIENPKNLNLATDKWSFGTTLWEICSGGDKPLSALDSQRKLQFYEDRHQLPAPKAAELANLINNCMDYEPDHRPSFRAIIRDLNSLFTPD
Protocol: Example B. JAK2 LanthaScreen JH2-V617F Binding Assay
JAK2 JH2-V617F binding assay utilizes pseudo-kinase domain (JH2, amino-acids 536-812 with 3 surface mutations W659A, W777A, F794H) of human V617F mutant JAK2 expressed as C-terminal His-Avi-tagged, biotinylated protein in a baculovirus expression system (BPS Bioscience, Catalog #79498). The assay was conducted in black 384-well polystyrene plates in a final reaction volume of 20 μL. JAK2 JH2-V617F (0.26 nM) was incubated with compounds (100 nL serially diluted in DMSO) in the presence of 50 nM Fluorescent JAK2-JH2 Tracer (MedChem Express Catalog #HY-102055) and 0.25 nM Streptavidin-Tb cryptate (Cisbio Part #610SATLB) in assay buffer (50 mM Tris, pH=7.5, 10 mM MgCl2, 0.01% Brij-35, 0.1% BSA, 1 mM EGTA, 5% Glycerol and 5 mM DTT). Non-specific binding was accessed in the presence of 2 mM ATP. After incubation for 1 hour at 25° C., LanthaScreen signals were read on a PHERAstar FS plate reader (BMG LABTECH). Data was analyzed with IDBS XLfit and GraphPad Prism 5.0 software using a four parameter dose response curve to determine IC50 for each compound.

Chain of TRKA (Homo sapiens, UniProt P04629) (P04629 33-796, species assumed): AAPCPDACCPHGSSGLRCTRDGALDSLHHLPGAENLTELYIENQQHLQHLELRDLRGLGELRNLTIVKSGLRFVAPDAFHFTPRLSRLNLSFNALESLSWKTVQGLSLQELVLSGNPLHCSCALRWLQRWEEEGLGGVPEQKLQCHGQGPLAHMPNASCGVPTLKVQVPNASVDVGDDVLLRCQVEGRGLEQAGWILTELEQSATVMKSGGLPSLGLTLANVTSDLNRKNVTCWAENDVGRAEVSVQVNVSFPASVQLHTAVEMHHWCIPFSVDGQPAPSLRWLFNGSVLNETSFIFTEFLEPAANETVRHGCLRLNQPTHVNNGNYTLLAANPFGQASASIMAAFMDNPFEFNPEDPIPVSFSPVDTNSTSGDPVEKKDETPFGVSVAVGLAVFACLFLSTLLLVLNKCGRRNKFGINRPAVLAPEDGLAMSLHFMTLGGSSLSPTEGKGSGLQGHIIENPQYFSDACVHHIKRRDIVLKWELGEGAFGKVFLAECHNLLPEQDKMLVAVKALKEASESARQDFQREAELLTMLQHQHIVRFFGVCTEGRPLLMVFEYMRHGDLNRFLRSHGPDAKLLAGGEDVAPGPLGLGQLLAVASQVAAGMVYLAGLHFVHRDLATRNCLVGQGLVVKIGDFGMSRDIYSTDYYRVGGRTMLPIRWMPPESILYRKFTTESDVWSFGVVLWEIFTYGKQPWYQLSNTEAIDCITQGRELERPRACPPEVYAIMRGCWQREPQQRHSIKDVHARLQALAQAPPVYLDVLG

Row | Compound | IC50 (TRKA [1]) [nM] | Selectivity TRKA/JH2 V617F (TRKA [2]) | Selectivity KIT/JH2 V617F (KIT [3]) | IC50 (KIT [4]) [nM] | Selectivity FLT3/JH2 V617F (FLT3) | IC50 ([5]; Table A) [nM] | IC50 ([5]; Table C) [nM]
1 | COc1nn(C)cc1-c1[nH]c2ncc3c(c2c1-c1ccc2c(cnn2C)c1)n(C1CCOCC1)c(=O)n3C [A, reference compound] | 1250 to 2500 | ** (selectivity of >500-fold to ≤1500-fold) | * (selectivity of ≤500-fold) | 250 to 1250 | * (selectivity of ≤500-fold) | – | –
2 | [2H]C([2H])([2H])n1ncc2cc(-c3c(-c4cn(C)nc4OC)[nH]c4ncc5c(c34)n(C3CCOCC3)c(=O)n5C)ccc21 [B, reference compound] | > 2500 | ** (selectivity of >500-fold to ≤1500-fold) | ** (selectivity of >500-fold to ≤1500-fold) | – | * (selectivity of ≤500-fold) | – | –
3 | COc1nn(C)cc1-c1[nH]c2ncc3c(c2c1-c1ccc2c(cnn2C)c1)n([C@H]1CC[C@@H](CC#N)CC1)c(=O)n3C [E, reference compound] | 250 to 1250 | ** (selectivity of >500-fold to ≤1500-fold) | *** (selectivity of >1500-fold to ≤1750-fold) | 1250 to 2500 | * (selectivity of ≤500-fold) | – | –
4 | COC(=O)N[C@@H]1CC[C@@H](n2c(=O)n(C)c3cnc4[nH]c(-c5cn(C)nc5OC)c(-c5ccc(F)cc5)c4c32)C1 [Example 1, Methyl ((1R,3R)-3-(8-(4-fluorophenyl)-7-(3-methoxy-1-methyl-1H-pyrazol-4-yl)-3-methyl-2-oxo-3,6-dihydroimidazo[4,5-d]pyrrolo[2,3-b]pyridin-1(2H)-yl)cyclopentyl)carbamate] | 1250 to 2500 | ** (selectivity of >500-fold to ≤1500-fold) | ***** (selectivity of >5000-fold to ≤12500-fold) | > 2500 | **** (selectivity of >1750-fold to ≤5000-fold) | ≤ 10 | ≤ 10
5 | COC(=O)N[C@@H]1CC[C@@H](n2c(=O)n(C)c3cnc4[nH]c(-c5cn(C)nc5OC)c(-c5ccccc5)c4c32)C1 [Example 2, Methyl ((1R,3R)-3-(7-(3-methoxy-1-methyl-1H-pyrazol-4-yl)-3-methyl-2-oxo-8-phenyl-3,6-dihydroimidazo[4,5-d]pyrrolo[2,3-b]pyridin-1(2H)-yl)cyclopentyl)carbamate] | > 2500 | **** (selectivity of >1750-fold to ≤5000-fold) | **** (selectivity of >1750-fold to ≤5000-fold) | > 2500 | **** (selectivity of >1750-fold to ≤5000-fold) | ≤ 10 | ≤ 10
6 | COC(=O)N[C@@H]1CC[C@@H](n2c(=O)n(C)c3cnc4[nH]c(-c5cn(C)nc5OC)c(-c5cccc(F)c5)c4c32)C1 [Example 3, Methyl ((1R,3R)-3-(8-(3-fluorophenyl)-7-(3-methoxy-1-methyl-1H-pyrazol-4-yl)-3-methyl-2-oxo-3,6-dihydroimidazo[4,5-d]pyrrolo[2,3-b]pyridin-1(2H)-yl)cyclopentyl)carbamate] | 1250 to 2500 | **** (selectivity of >1750-fold to ≤5000-fold) | **** (selectivity of >1750-fold to ≤5000-fold) | 1250 to 2500 | **** (selectivity of >1750-fold to ≤5000-fold) | ≤ 10 | ≤ 10
7 | COC(=O)N[C@@H]1CC[C@@H](n2c(=O)n(C)c3cnc4[nH]c(-c5cn(C)nc5OC)c(-c5ccc(OC)c(F)c5)c4c32)C1 [Example 4, Methyl ((1R,3R)-3-(8-(3-fluoro-4-methoxyphenyl)-7-(3-methoxy-1-methyl-1H-pyrazol-4-yl)-3-methyl-2-oxo-3,6-dihydroimidazo[4,5-d]pyrrolo[2,3-b]pyridin-1(2H)-yl)cyclopentyl)carbamate] | > 2500 | ***** (selectivity of >5000-fold to ≤12500-fold) | ****** (selectivity of >12500-fold) | > 2500 | ***** (selectivity of >5000-fold to ≤12500-fold) | ≤ 10 | ≤ 10
8 | [2H]C([2H])([2H])n1ncc2cc(-c3c(-c4cn(C)nc4OC)[nH]c4ncc5c(c34)n([C@@H]3CC[C@@H](NC(=O)OC)C3)c(=O)n5C)ccc21 [Example 5, Methyl ((1R,3R)-3-(7-(3-methoxy-1-methyl-1H-pyrazol-4-yl)-3-methyl-8-(1-(methyl-d3)-1H-indazol-5-yl)-2-oxo-3,6-dihydroimidazo[4,5-d]pyrrolo[2,3-b]pyridin-1(2H)-yl)cyclopentyl)carbamate] | > 2500 | ****** (selectivity of >12500-fold) | ****** (selectivity of >12500-fold) | > 2500 | ***** (selectivity of >5000-fold to ≤12500-fold) | ≤ 10 | ≤ 10
9 | [2H]C([2H])([2H])n1cc(-c2[nH]c3ncc4c(c3c2-c2ccc3c(cnn3C([2H])([2H])[2H])c2)n([C@@H]2CC[C@@H](NC(=O)OC)C2)c(=O)n4C([2H])([2H])[2H])c(F)n1 [Example 6, Methyl ((1R,3R)-3-(7-(3-fluoro-1-(methyl-d3)-1H-pyrazol-4-yl)-3-(methyl-d3)-8-(1-(methyl-d3)-1H-indazol-5-yl)-2-oxo-3,6-dihydroimidazo[4,5-d]pyrrolo[2,3-b]pyridin-1(2H)-yl)cyclopentyl)carbamate] | > 2500 | ****** (selectivity of >12500-fold) | **** (selectivity of >1750-fold to ≤5000-fold) | 250 to 1250 | ***** (selectivity of >5000-fold to ≤12500-fold) | ≤ 10 | ≤ 10
